One assay concerns HKe-3 (K-RAS^−/+). As to the kind of experiment: Cell viability (Syto60). It counts as cell-based. To be noted: 72 hours; for cooperation with / sensitization to AZ-628 (cell viability): K-RAS wild-type cells (HKe-3), 1 µM AZ-628. The procedure: All colon cancer cell lines were maintained in DMEM supplemented with penicillin (100 units/mL), streptomycin (100 μg/mL), and 10% fetal bovine serum (FBS). The rectal cancer cell line (Car1) was maintained in DMEM/F12 supplemented with penicillin (100 units/mL)/streptomycin (50 μg/mL), and 5% FBS. […] The target sequences for knockdowns can be found in Table S2. In drug treatment experiments, cells were plated for 24 hours prior to exposure to drug. AZ-628 was obtained from AstraZeneca. CI-1040 was obtained from Pfizer. R406 was synthesized in the Gray laboratory. BAY61-3606 and IKK VII were purchased from EMD Biosciences. BAY derivatives were synthesized for this study.
(§1) Cell cycle analysis was performed via FACS-based propidium iodide quantification, using standard methods. To measure cell viability, cells were grown in 96-well plates in the presence or absence of drug for 72 hours, fixed with 4% paraformaldehyde, and then stained with Syto60 (Invitrogen). Plates were imaged and quantified using the LiCor Odyssey system (LiCor).

For a further assay, the target named is T1, NEK1 (Homo sapiens, UniProt Q96PY6).
T1 construct: purchased Ambit KINOMEscan (DiscoverX)
T1 sequence (Q96PY6 1-1258): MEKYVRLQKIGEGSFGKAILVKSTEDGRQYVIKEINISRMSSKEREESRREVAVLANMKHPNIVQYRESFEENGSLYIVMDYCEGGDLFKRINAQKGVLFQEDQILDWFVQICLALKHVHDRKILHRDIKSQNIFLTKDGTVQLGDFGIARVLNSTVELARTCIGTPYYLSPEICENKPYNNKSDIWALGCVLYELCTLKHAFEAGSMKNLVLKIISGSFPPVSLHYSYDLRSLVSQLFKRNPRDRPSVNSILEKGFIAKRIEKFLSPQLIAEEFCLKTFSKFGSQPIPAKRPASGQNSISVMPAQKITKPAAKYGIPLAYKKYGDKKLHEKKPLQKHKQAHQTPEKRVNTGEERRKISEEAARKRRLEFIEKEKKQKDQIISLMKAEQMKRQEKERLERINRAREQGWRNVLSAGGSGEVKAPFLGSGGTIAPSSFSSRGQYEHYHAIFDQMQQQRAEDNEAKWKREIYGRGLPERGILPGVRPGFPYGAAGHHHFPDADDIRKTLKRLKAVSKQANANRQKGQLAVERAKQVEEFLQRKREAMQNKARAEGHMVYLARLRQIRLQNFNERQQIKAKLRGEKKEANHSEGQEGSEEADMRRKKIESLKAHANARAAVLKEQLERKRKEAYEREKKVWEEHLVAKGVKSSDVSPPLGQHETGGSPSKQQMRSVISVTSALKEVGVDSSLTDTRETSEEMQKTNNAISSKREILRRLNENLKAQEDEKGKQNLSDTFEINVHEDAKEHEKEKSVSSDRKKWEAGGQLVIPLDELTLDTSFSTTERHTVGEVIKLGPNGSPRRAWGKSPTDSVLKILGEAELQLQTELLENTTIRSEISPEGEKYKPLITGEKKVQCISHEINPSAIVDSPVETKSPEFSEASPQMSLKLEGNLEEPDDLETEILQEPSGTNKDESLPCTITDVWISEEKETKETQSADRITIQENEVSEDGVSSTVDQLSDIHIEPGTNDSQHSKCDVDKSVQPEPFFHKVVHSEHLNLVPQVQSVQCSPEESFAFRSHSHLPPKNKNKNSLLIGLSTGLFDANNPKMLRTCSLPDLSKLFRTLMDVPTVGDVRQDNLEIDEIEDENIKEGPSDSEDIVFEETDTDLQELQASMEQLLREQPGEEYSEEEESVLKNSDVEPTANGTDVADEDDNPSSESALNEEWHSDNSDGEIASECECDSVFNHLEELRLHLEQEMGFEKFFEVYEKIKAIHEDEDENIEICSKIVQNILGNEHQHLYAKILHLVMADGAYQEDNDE
Description: SelectScreen in vitro kinase IC50. It counts as biochemical. On the procedure: (§2) First, we used Ambit's KINOMEscan™ technology to identify those kinases that are inhibited for substrate binding by the compounds, all assayed at 1 μM. Second, we used Invitrogen's SelectScreen® Biochemical Kinase Profiling Service to determine the in vitro IC50s for the compounds against specific kinases.

For the next assay, the target named is T2, HIPK1 (Homo sapiens, UniProt Q86Z02).
T2 construct: purchased Ambit KINOMEscan (DiscoverX)
T2 sequence (Q86Z02 whole entry): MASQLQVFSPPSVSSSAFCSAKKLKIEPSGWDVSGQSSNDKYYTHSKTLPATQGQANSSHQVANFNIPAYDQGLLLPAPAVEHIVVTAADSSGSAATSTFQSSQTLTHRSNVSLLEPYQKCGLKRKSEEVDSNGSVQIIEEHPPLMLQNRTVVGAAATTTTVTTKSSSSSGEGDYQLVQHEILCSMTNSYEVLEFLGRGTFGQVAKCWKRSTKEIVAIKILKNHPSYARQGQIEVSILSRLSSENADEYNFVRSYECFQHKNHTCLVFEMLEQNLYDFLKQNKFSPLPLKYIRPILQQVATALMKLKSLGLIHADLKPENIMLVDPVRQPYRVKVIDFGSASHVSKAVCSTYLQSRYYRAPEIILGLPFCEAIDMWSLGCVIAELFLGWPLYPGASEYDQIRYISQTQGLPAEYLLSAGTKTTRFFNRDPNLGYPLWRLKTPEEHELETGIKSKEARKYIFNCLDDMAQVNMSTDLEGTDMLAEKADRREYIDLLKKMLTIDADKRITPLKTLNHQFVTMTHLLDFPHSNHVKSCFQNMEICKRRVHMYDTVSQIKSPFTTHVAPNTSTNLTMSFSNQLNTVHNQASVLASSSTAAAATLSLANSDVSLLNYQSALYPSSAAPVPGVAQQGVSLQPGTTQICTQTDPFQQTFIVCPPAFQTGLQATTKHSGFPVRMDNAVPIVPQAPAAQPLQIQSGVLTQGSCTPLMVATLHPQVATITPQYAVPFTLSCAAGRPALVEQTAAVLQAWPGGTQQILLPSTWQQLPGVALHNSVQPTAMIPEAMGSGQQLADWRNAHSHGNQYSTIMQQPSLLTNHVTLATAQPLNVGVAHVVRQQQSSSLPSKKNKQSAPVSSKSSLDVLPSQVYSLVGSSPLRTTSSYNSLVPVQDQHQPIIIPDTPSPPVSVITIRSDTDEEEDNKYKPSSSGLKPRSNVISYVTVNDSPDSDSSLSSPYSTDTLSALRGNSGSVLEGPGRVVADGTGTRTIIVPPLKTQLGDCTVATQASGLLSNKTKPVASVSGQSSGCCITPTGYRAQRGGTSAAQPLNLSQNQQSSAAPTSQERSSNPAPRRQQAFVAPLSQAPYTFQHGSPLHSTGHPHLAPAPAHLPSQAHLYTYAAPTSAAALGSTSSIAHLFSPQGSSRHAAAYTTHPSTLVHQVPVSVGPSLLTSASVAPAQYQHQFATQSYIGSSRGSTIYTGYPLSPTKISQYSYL
As to the kind of experiment: SelectScreen in vitro kinase IC50. It is filed as biochemical. The procedure: as §2

A further assay has as its system B cell migration. Further details: method as in PMID 21123826. As to conditions: mice ref 15; cited from earlier work.
In a further assay the target is T3, NEK9 (Homo sapiens, UniProt Q8TD19).
T3 construct: purchased Ambit KINOMEscan (DiscoverX)
T3 sequence (Q8TD19 whole entry): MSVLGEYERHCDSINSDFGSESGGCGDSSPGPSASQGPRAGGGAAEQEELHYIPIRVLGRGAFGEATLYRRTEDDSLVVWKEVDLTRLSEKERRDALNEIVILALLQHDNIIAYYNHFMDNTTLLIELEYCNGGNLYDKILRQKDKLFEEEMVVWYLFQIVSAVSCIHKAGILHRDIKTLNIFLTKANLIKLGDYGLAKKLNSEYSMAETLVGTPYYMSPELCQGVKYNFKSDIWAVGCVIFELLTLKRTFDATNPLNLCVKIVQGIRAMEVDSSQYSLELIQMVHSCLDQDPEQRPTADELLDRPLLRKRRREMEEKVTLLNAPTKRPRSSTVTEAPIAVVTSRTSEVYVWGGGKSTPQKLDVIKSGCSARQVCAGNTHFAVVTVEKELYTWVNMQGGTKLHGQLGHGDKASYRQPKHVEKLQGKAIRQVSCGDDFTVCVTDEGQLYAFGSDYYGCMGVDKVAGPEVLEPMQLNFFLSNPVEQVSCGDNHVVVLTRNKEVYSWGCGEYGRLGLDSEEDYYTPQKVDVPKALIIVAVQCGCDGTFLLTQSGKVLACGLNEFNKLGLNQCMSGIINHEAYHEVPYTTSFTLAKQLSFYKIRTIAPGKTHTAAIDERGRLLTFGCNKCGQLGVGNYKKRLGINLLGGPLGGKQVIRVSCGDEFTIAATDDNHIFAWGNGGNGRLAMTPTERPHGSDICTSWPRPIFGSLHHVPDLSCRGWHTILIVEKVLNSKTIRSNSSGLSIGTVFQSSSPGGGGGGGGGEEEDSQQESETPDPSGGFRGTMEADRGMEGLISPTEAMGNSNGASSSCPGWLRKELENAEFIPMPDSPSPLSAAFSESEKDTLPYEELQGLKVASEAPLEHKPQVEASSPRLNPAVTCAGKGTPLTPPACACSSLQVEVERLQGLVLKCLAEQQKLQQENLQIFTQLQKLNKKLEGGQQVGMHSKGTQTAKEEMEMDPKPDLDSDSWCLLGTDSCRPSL
As to the kind of experiment: KINOMEscan. To be noted: NEK9, 1 uM. It is filed as binding. Put shortly: (§3)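 A binding-competition profile was run with every compound fixed at 1 μM; hits were kinases showing inhibited substrate binding.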

The target of a further assay is T4, PRKCD (Homo sapiens, UniProt Q05655).
T4 construct: purchased Ambit KINOMEscan (DiscoverX)
T4 sequence (Q05655 whole entry): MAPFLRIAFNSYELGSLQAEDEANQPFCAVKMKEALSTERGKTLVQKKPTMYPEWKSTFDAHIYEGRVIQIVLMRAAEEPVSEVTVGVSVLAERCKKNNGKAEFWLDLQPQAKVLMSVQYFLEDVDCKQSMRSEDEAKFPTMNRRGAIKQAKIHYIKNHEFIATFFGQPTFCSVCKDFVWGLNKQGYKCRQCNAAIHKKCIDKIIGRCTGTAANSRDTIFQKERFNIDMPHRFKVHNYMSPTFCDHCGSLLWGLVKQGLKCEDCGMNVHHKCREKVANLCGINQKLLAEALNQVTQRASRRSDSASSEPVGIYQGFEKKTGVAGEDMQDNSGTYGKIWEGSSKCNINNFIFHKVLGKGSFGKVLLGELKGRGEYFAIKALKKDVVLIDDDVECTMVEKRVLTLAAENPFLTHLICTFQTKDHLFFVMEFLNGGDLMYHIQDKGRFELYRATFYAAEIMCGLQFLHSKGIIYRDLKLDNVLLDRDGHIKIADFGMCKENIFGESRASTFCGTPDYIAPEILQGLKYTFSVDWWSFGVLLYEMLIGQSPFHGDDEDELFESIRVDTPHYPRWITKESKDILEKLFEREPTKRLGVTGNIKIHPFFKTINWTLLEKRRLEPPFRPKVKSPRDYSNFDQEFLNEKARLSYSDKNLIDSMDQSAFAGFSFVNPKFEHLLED
As to the kind of experiment: KINOMEscan. It counts as binding. As to conditions: 1 uM. Put shortly: as §3

In the next assay the test system is DLD-1 (K-RAS^G13D/+). As to the kind of experiment: Cell cycle analysis (propidium iodide FACS). It is filed as cell-based. As to conditions: DLD-1 cells. The procedure:
as §1

A further assay concerns the target T5, MAP4K2 (Homo sapiens, UniProt Q12851).
T5 construct: purchased Ambit KINOMEscan (DiscoverX)
T5 sequence (Q12851 1-820): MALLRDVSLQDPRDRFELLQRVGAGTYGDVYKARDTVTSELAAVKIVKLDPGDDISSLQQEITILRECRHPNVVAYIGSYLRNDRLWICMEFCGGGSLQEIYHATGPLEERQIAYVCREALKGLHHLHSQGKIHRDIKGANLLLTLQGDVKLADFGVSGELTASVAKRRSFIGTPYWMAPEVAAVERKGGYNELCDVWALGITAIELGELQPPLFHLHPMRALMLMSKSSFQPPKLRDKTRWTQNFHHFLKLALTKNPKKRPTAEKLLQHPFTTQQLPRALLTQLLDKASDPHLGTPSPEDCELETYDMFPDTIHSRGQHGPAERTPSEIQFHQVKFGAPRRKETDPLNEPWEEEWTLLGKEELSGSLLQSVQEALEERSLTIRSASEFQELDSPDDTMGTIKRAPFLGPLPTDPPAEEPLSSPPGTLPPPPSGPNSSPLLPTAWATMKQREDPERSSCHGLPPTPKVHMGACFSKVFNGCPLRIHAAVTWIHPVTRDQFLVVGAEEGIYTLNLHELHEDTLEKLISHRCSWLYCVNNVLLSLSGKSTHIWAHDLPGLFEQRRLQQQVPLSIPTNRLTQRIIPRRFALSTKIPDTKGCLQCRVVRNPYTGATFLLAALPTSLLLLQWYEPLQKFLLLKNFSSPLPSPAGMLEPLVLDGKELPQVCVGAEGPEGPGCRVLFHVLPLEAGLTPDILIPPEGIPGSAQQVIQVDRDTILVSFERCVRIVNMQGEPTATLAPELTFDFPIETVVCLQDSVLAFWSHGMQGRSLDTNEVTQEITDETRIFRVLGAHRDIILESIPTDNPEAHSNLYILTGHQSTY
Description: SelectScreen in vitro kinase IC50. It counts as biochemical. As to conditions: Fig. S5. The procedure:
as §2

The structures appear in SMILES notation.

Regarding `COc1ccc(-c2cc3nccn3c(Nc3ncccc3C(N)=O)n2)cc1OC.Cl.Cl` [BAY61-3606, 2-[7-(3,4-dimethoxyphenyl)-imidazo [1,2-c]pyrimidin-5-ylamino] nicotinamide dihydrochloride, reference compound], the “sensitization to AZ-628 (cell viability)” value in the assay with HKe-3 (K-RAS^−/+) (HKe-3 cells with MAP4K2 knockdown, 1 µM + 1 µM AZ-628) is “no longer sensitizes”. Further, the “cooperation with / sensitization to AZ-628 (cell viability)” value in the assay on HKe-3 (K-RAS^−/+) is reported as “became sensitive”. The IC50 is 159 nM at NEK1 and 4240 nM at HIPK1. In addition, the B cell migration result in the assay with B cell migration was “suppresses”. Also, the “% binding compared to no inhibitor control” value at NEK9 was 90%; on PRKCD, 94%. In addition, the apoptosis result in the assay on DLD-1 (K-RAS^G13D/+) is recorded as “nor did it induce apoptosis”. In addition, in the assay on DLD-1 (K-RAS^G13D/+) (propidium iodide), the cell cycle profile entry is on record as “did not alter the cell cycle profile”.

For the compound `COc1ccccc1Nc1nc(-c2ccc(OC)c(OC)c2)cc2nccn12` [BAY derivative 6], the “cooperation with / sensitization to AZ-628 (cell viability)” value in the assay on HKe-3 (K-RAS^−/+) was “lost its ability to cooperate with AZ-628”. At MAP4K2, the “in vitro kinase activity of MAP4K2, inhibition” value is reported as “lost its ability to effectively inhibit the in vitro kinase activity of MAP4K2”. Besides, the “% binding compared to no inhibitor control” value on NEK9 and at PRKCD was 100% in each case.

(Values after PMC3399817 (PLoS ONE, 2012).)
